In patent US5180831A (priority 1990, dated 1993):
“Also recorded” adds a separate entry of the source.

Key:
[1] = in vivo; conditions: mouse, im
[2] = system: AChE; format: biochemical, electric eel and human
[3] = in vivo; conditions: mouse, po
[4] = mouse, in vivo
[5] = parameters: species or system Male ICR mice; conditions: mouse, in vivo
[6] = target: electric eel AChE (Electrophorus electricus, UniProt O42275); experiment: biochemical
[7] = target: human erythrocyte AChE (Homo sapiens, UniProt P22303); experiment: biochemical; conditions: read-out: kobs /[I] (human)
human erythrocyte AChE, sequence (P22303-2 with tags, fused parts or gaps limits assumed): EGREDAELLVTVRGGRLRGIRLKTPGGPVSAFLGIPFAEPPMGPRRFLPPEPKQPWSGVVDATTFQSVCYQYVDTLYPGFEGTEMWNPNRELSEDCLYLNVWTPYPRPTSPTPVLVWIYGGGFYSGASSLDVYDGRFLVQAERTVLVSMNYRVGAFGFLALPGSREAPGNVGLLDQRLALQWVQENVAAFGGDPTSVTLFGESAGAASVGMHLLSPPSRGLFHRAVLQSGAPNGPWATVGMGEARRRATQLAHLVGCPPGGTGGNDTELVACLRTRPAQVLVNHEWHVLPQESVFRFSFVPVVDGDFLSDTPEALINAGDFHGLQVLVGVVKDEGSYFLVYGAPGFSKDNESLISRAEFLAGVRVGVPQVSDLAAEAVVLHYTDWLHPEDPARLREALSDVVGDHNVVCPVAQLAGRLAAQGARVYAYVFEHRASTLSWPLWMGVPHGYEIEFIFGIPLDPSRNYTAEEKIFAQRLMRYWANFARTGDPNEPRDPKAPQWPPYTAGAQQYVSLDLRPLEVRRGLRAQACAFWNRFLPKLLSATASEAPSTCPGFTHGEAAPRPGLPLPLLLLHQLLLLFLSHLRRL

electric eel AChE, sequence (O42275 24-633): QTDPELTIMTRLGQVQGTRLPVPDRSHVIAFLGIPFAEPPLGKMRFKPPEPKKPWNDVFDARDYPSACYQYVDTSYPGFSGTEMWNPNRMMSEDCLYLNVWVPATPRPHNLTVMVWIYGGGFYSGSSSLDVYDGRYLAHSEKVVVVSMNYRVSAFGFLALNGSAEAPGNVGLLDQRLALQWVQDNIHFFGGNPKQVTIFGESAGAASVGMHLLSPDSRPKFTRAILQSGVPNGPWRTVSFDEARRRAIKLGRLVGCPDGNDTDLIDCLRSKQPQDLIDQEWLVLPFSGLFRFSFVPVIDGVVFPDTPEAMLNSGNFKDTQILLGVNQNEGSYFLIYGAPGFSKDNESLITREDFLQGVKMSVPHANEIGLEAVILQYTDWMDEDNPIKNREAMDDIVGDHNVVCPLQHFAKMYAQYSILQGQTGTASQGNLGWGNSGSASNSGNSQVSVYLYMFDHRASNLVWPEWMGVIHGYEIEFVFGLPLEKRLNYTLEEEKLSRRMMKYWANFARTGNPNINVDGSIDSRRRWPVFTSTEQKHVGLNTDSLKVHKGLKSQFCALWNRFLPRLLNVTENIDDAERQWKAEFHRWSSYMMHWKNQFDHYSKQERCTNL

Row | SMILES | LD50 at 24 h [1] [µmol/kg] | further results
1 | C[n+]1ccccc1C=NOCc1ccccc1 [Compound 1a, O-Benzyl-N-(1-methyl-2-pyridinemethylene) hydroxylamine chloride] | 180 | mode of inhibition [2]: pure competitive inhibition
2 | C[n+]1cccc(O)c1C=NOCc1ccccc1 [Compound 1b, O-Benzyl-N-(3-hydroxy-1-methyl-2-pyridinemethylene) hydroxylamine chloride] | > 880 | LD50 at 24 h [3]: 3600 µmol/kg; mode of inhibition [2]: pure competitive inhibition
3 | CON=Cc1c(O)ccc[n+]1C [Compound 1c, O-Methyl-N-(3-hydroxy-1-methyl-2-pyridinemethylene) hydroxylamine chloride] | > 1970 | –
4 | C[n+]1cccc(O)c1C=NOCc1ccc(Cl)cc1 [Compound 1d, O-(p-Chlorobenzyl)-N-(3-hydroxy-1-methyl-2-pyridinemethylene) hydroxylamine chloride] | > 320 | mode of inhibition [2]: pure competitive inhibition
5 | COc1ccc(CON=Cc2c(O)ccc[n+]2C)cc1 [Compound 1e, O-(p-Methoxybenzyl)-N-(3-hydroxy-1-methyl-2-pyridinemethylene) hydroxylamine chloride] | > 760 | LD50 at 24 h [3]: > 3200 µmol/kg; mode of inhibition [2]: pure competitive inhibition
6 | C[n+]1cccc(O)c1C=NO [Compound 1f] | – | toxicity in words [4]: small increase in toxicity
7 | C[n+]1cc(O)ccc1C=NO [Compound 1g, reference compound] | > 514 | toxicity in words [4]: small increase in toxicity
8 | C[n+]1ccccc1/C=N/O [Compound 2-PAM, reference compound] | 853 | –
9 | C[n+]1cccc(O)c1C=NNC(N)=O.[Cl-] [Compound 3a, 2-[[(Aminocarbonyl)hydrazono]methyl]-3-hydroxy-1-methyl pyridinium chloride] | > 1100 | –
10 | C[n+]1cccc(O)c1C=NNC(=O)Nc1ccccc1.[Cl-] [Compound 3b, 3-Hydroxy-1-methyl-2-[[(N-phenylaminocarbonyl)hydrazono]methyl]pyridinium chloride] | > 40 | –
11 | C[n+]1ccccc1C=NNC(N)=O [Compound 3c] | > 560 | –
12 | C[n+]1ccccc1C=NNC(=O)Nc1ccccc1.[Cl-] [Compound 3d, 1-Methyl-2-[[(N-phenylaminocarbonyl)hydrazono]methyl]pyridinium chloride] | > 430 | –
13 | C[n+]1cccc(O)c1C=NNC(=O)C[n+]1ccccc1 [Compound 5a, 2-(3-Hydroxy-1-methyl-2-pyridinemethylene)-1-[2-(1-pyridinium)acetyl]hydrazine dichloride] | > 670 | LD50 at 24 h [3]: 2900 µmol/kg; GA reactivator activity in words [5]: significant activity as GA reactivators; also recorded: good in vivo reactivators against GA
14 | C[n+]1ccccc1C=NNC(=O)C[n+]1ccccc1 [Compound 5b, 2-(1-Methyl-2-pyridinemethylene)-1-[2-(1-pyridinium)acetyl]hydrazine dichloride] | 380 | GA reactivator activity in words [5]: significant activity as GA reactivators; also recorded: good in vivo reactivators against GA
15 | NC(=O)c1cc[n+](COC[n+]2ccccc2/C=N/O)cc1 [HI-6, reference compound] | 4500 | –
16 | CNC(=O)Oc1ccc2c(c1)[C@]1(C)CCN(C)[C@@H]1N2C [Phy, Physostigmine] | – | kobs /[I] (eel) ([6]; 0.1 m phosphate buffer): 14000 M⁻¹ s⁻¹
17 | CN(C)C(=O)Oc1ccc[n+](C)c1 [Pyr, Pyridostigmine] | – | kinact/KI ([6]; read-out: kobs /[I] (eel)): 580 M⁻¹ s⁻¹; kinact/KI [7]: 13000 M⁻¹ s⁻¹
